The structures appear in SMILES notation.

One assay concerns UCB HSC. The settings on record: pulse incubation of UCB cells; clinical trial; cited from earlier work.
The subject of assay [1] is phospho-GSK-3β in CD34+ cells from UCB. The assay is described as follows: UCB mononuclear cells treated with PGE2; phospho-GSK-3β expression in CD34+ cells by high-resolution flow cytometry. The assay is classed as cell-based. The settings on record: UCB treated with reagent vehicle (DMSO) versus PGE2. The text has this:
Using our high-resolution flow cytometric technology, we have studied HSC for measures of potency. Our conception has been that expression levels of molecules shown to be important for hematopoiesis in experimental studies may have utility in assessing the potency of HSC in terms of engraftment after transplantation.
In order to assess molecular expression level correlates of potency in UCB HSC, we treated UCB mononuclear cells with PGE2 and assessed the expression of […].
This is consistent with our previous finding that phospho-GSK-3β is a potency biomarker.
A general note: A flow cytometer gives signals particle by particle.

On to `CCCCC[C@H](O)/C=C/[C@H]1[C@H](O)CC(=O)[C@@H]1C/C=C\CCCC(=O)O` [PGE2, Prostaglandin E2], for which the “potency of the HSC in terms of engraftment” value in the assay with UCB HSC is recorded as “enhances the potency of the HSC in terms of engraftment”. Also, in assay [1], the “expression of phospho-GSK-3β in CD34+ cells” value is on record as “able to detect differences in expression of phospho-GSK-3β”.

The values are drawn from patent publication US20160231319A1, “METHOD OF ENHANCING HEMATOPOIETIC CELL TRANSPLANTATION” (Verve, Ltd., priority 2014, published 2016).
